# Values of other authors, collected in patent US5718912A, “Muscarine agonists” (Merck & Co., Inc., priority 1996, dated 1998).
# “Also recorded” adds a separate entry of the source.
# Test system: intraocular pressure
structure (smiles),measurement,setting,value
CC[C@@H]1C(=O)OC[C@@H]1Cc1cncn1C [pilocarpine],side effects,pilocarpine therapy,miosis (decrease of pupil size); also recorded: systemic CNS effects
same,effect on intraocular pressure,topical administration,lowers intraocular pressure by increasing outflow
